US20090203605A1, “Methods For Treating A Condition Characterized By Dysfunction In Protein Homeostasis” (THE SCRIPPS RESEARCH INSTITUTE, priority 2008, published 2009)
Residues, ends and D or L forms follow the SMILES beside them. *: point of attachment. Cbz = O=C(OCc1ccccc1)*

Legend:
L444P GC [1] = target: T1, L444P GC (Homo sapiens, UniProt P04062, L483P); experiment: GC activity assay in L444P GC Gaucher patient-derived fibroblasts; format: cell-based
T1 construct: a L444P GC Gaucher fibroblast cell line (GM08760); host or cells: Gaucher patient-derived skin fibroblasts
T1 sequence (P04062 40-536 L483P): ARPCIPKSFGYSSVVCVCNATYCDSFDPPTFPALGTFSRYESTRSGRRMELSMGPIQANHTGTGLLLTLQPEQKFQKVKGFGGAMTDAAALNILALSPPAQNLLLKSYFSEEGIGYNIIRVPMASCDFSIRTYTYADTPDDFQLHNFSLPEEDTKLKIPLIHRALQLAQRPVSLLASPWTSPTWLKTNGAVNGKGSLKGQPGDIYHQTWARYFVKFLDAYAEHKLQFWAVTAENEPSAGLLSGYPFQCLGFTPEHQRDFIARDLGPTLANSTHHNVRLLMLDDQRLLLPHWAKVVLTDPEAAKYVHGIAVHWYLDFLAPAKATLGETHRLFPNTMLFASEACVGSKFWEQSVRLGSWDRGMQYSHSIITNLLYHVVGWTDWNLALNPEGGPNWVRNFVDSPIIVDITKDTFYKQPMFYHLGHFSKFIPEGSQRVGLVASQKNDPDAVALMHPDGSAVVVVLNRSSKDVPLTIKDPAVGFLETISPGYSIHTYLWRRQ

[2] = test system: chaperone, CHOP and GC mRNA expression levels; experiment: Quantitative RT-PCR in L444P GC fibroblasts; format: cell-based, human
Text: The relative mRNA expression levels of representative cytoplasmic HSR-associated chaperones (Hsp40, Hsp70, Hsp90, Hsp27, αB-crystallin), ER lumenal UPR-associated chaperones (BiP, GRP94, calreticulin), and the ER chaperone calnexin were monitored and their reported levels were normalized to the levels in untreated cells (FIGS. 5A and B). The levels of glyceraldehyde-3-phosphate dehydrogenase, monitored as a housekeeping control, were unchanged in treated and untreated cells.
Quantitative RT-PCR. […] The forward and reverse primers for Hsp40, Hsp70, Hsp90, Hsp27, αB-crystallin (CRYAB), BiP, GRP94, calnexin (CNX), calreticulin (CRT), Xbp-1, and CHOP, and an endogenous housekeeping gene GAPDH are listed in Table 2. […] Each data point was evaluated in triplicate, and measured three times.

L444P GC [3] = format: cell-based, human; conditions: MG-132 0.25 μM for 3 d; diltiazem 10 μM for 14 days
Text: (§1) Immunofluorescence. Immunofluorescence has been previously described.
as §1

[4] = test system: Hsp70, HSF1, BiP, Hsp40, Hsp90; experiment: Western blot of chaperone and HSF1 protein levels in L444P GC fibroblasts; format: cell-based, human
Experimental: To correlate changes in Hsp70 chaperone levels with the celastrol-mediated transcriptional increase in Hsp70, as well as to investigate the temporal dependence of the change in Hsp70 levels, L444P GC fibroblasts were subjected to a single celastrol exposure (0.8 μM) for the period indicated and Hsp70 expression levels in cell lysates were analyzed by Western blot analysis. […] Hsp70, a product of HSR activation, has been implicated in HSR autoregulation by binding to HSF1, thereby repressing heat shock gene transcription (FIG. 7). Morimoto, Genes Dev 12: 3788-3796, 1998; Westerheide et al., J Biol Chem 280: 33097-33100, 2005.
Since HSF1 is likely to be responsible for celastrol's induction of the HSR we monitored HSF1 levels. Westerheide et al., J Biol Chem 279: 56053-56060, 2004. […] Awasthi, et al., Invest Opthalmol Vis Sci 46: 2082-2091, 2005; Bush et al., J Biol Chem 272: 9086-9092, 1997.
Western blot analyses. […] Total cell protein was determined with Micro BCA assay reagent (Pierce, Rockford, Ill.) and each sample was diluted to the same protein concentration. […] The western blot bands of the endoH treated samples were quantified by Java Image processing and analysis software from the NIH (http://rsb.info.nih.gov/ij/).
Western blot. […] Total cell protein was measured using the Micro BCA assay reagent. […]

[5] = diltiazem 10 μM, 7-day treatment

Row | SMILES | L444P GC activity as % of WT GC activity (L444P GC [1]; MG-132 single exposure, after 120 h (FIG. 2A)) | transcription of Hsp27 ([2]; 0.8 μM, 24 h) | transcription of calnexin ([2]; 0.8 μM, 24 h) | mRNA expression level of BiP ([2]; 0.8 μM, 2, 4, 6 and 24 h) | mRNA expression level of CHOP ([2]; 0.8 μM, 2, 4, 6 and 24 h) | colocalization of L444P GC with lysosomal marker LAMP2 (L444P GC [3]) | HSF1 protein levels ([4]; 0.8 μM, over 24 h) | direct activation of lysosomal L444P GC (L444P GC [1]; 1 μM to 100 μM, 1 h, intact cell assay) | effect on L444P GC activity, intact cell GC activity assay (L444P GC [1]; calcium channel blockers and ionotropic glutamate receptor inhibitors) | L444P GC activity as % of normal cellular WT GC activity (L444P GC [1]; diltiazem 10 μM, 5-day incubation, type II line (FIG. 17C, left panel)) | mRNA expression levels of Hsp70, GRP94, calnexin, and calreticulin [2, 5] | GC mRNA expression level vs untreated cells ([2]; diltiazem 10 μM, 6 h, 12 h, 1 day, 3 days and 5 days) | protein expression levels of BiP, Hsp40, and Hsp90 [4, 5]
1 | CC(C)C[C@@H](C=O)NC(=O)[C@H](CC(C)C)NC(=O)[C@H](CC(C)C)NC(=O)OCc1ccccc1 [MG-132] (Cbz-Leu-Leu-Leu-aldehyde) | ≈ 50.0% | did not | upregulated the transcription of calnexin significantly | BiP was also upregulated | upregulated the mRNA expression level of CHOP significantly | exhibited colocalization with the lysosomal marker LAMP2 | remained constant |  |  |  |  |  | 
2 | COc1ccc([C@@H]2Sc3ccccc3N(CCN(C)C)C(=O)[C@@H]2OC(C)=O)cc1.Cl [diltiazem, Diltiazem hydrochloride] |  |  |  |  |  | L444P GC colocalized with LAMP2 |  | No activity increase was observed | increased L444P GC activity significantly | ≈ 24% | not changed significantly | No significant differences | increased protein expression levels
